Measurements reported in EP0182317A2, “Antineoplastic agent” (priority 1984, dated 1986).

What was measured:
[1] = system: Hela S3 cells; assay: Inhibition of proliferation of incubated Hela S3 cells; assay type: cell-based; settings: cells counted 3 days after addition of sample
Procedure: Effect of inhibiting the proliferation of incubated Hela S3 cells:
Hela S3 cells were placed on a culture medium (NEM containing 10 % of calf serum in a plastic dish. After 2 days, an organoselenium compound was added thereto. After containing the culture for additional 3 days, the number of the cells was counted. The proliferation inhibition rate was calculated according to the following formula: Inhibition rate (%) = 100 x (B-A) / (B-C) in which A is the final number of the cells counted on the third day after addition of the test sample, B is the final number of the cells in a sample- free control and C is the number of the cells counted immediately after the addition of the test sample. The value of IC50 (50 % inhibitory concentration) was determined from a graph showing the relationship between the concentration of the sample and the inhibition rate.

[2] = system: Ehrlich carcinoma; assay: Antineoplastic effect on Ehrlich carcinoma in mice (survival, T/C percent); assay type: in vivo, male ICR mouse; settings: Mus musculus, Ehrlich, ip, 720 h, in the abdomen once a day for 7 days, observation period 60 days
Procedure: Antineoplastic effect on Ehrlich carcinoma:
(§1) About 10^6/0.2 ml of Ehrlich carcinoma cells were placed in an abdomen of each male ICR mouse of 5 weeks old. On the next day the administration of the test sample in the abdomen was started. The test sample was given once a day for 7 days. For an untreated group, a physiological saline solution was given in the same manner as above. […] The T/C percent (T/C x 100) was determined from the average survival periods (days) of the treated group and control group. Further, 50 % lethal dose (LD50) was determined from the number of the mice which died of toxicity of the test samples administered.

[3] = 50 % lethal dose from toxic deaths in the Ehrlich carcinoma experiment; assay type: in vivo, male ICR mouse; settings: mouse, in vivo, ip; mice bearing Ehrlich carcinoma, in the abdomen once a day for 7 days
Procedure: as §1

[4] = system: Salmonella typhimurium TA-98; assay: Antimutagenic properties by Ames method with benzo[a]pyrene as mutagen; assay type: cell-based; settings: for Number of colonies: B(a)P, S-9 mix; for inhibition rate: inhibition of the mutagenic effect of B(a)P
Procedure: The experiment was carried out by Ames method using Salmonella typhimurium TA-98 (hereinafter referred to as TA-98) as the test microorganism and benzo[a]pyrene (hereinafter referred to as B(a)P) as the mutagen.
0.1 ml of a solution containing […] of B(a)P and a suitable amount of a compound of the present invention was added to 0.5 ml of S-9 mix and 0.1 ml of a TA-98 suspension. The mixture was incubated at 37°C for 20 min. 2 ml of soft agar was added thereto, mixed well and then spread evenly on a glucose minimum agar medium plate. After the incubation at 37°C for 48 h, the number of colonies formed by the back mutation was counted.
The number of the colonies formed when neither B(a)P nor the compound of the present invention was used was employed as the background.
The antimutagenic properties was shown as the rate of inhibition of the mutagenic effect according to the following formula: [formula]

Work on `O=[Se](Cl)Cl.c1ccncc1` [Selenium oxychloride·pyridine (1:1) complex] yielded an IC50 [1] of 0.59 mg/L.
Work on `O=[Se]1OCCO1` [Compound 14, 1,2-ethanediol selenite] yielded a response vs control in vivo at 2 mg/kg ([2]; dose 2.0 mg/kg) of 193%, a response vs control in vivo at 4 mg/kg ([2]; dose 4.0 mg/kg) of 266% and a response vs control in vivo at 8 mg/kg ([2]; dose 8.0 mg/kg) of 108%. It also gave a response vs control in vivo at 16 mg/kg ([2]; dose […]) of 34%, an LD50 at 720 h [3] of 4 to 8 mg/kg and a Number of colonies ([4]; dose 0.5 µg/plate) of 231. It also gave an inhibition rate ([4]; dose 0.5 µg/plate) of 23.1%, a Number of colonies ([4]; dose 1 µg/plate) of 235 and an inhibition rate ([4]; dose 1 µg/plate) of 21.6%. For the same compound, the Number of colonies ([4]; dose 5 µg/plate) was 156, the inhibition rate ([4]; dose 5 µg/plate) was 51.1% and the Number of colonies ([4]; dose 10 µg/plate) was 145. For the same compound, the inhibition rate ([4]; dose 10 µg/plate) was 55.2%, the Number of colonies ([4]; dose 50 µg/plate) was 76 and the inhibition rate ([4]; dose 50 µg/plate) was 81.0%. The Number of colonies ([4]; dose 100 µg/plate) was 62, the inhibition rate ([4]; dose 100 µg/plate) was 86.2% and the Number of colonies ([4]; dose 500 µg/plate) was 32. It also gave an inhibition rate ([4]; dose 500 µg/plate) of 97.4%.
